Read-outs that look alike come from different tables or passages of the source.

In the assay the test system is human T lymphocyte strain Jurkat (ATCC TIB-152) adhesion to ICAM-1. The assay can be described thus: T-cell adhesion assay (Jurkat cells on ICAM-1 coated plates). The assay is classed as cell-based. The conditions noted are these: BCECF-AM labelled Jurkat cells, ICAM-1 coated plate, fluorescence readout, read-out: EC50 of cell adhesion and inhibition. On the procedure: Cell Adhesion Inhibition Experiments:
T-cell adhesion assay was performed using human T lymphocyte strain Jurkat (ATCC TIB-152): goat Anti-Human IgG (Fc specific) (Sigma 18885) was diluted to 10 μg/ml in PBS, incubated 100 μL per well/96 well plate at 4° C. for 12 hours. Liquid in the well plate was poured off, blocked with 200 μL of 1% BSA at 37° C. for 90 minutes, and washed three times with PBS. 50 μL of 1 μg/mL ICAM-1 (containing 0.1% BSA, 0.01% Tween 20) was added to each well and incubated at 37° C. for 3 hours. The plate was washed 3 times with assay buffer (20 mM HEPES pH 7.6, 140 mM NaCl, 1 mM MgCl2, 1 mM MnCl2, 0.2% glucose).
The Jurkat […] was centrifuged at 100-G, and cells were resuspended in an assay buffer (20 mM HEPES pH 7.6, 140 mM NaCl, 1 mM MgCl2, 1 mM MnCl2, 0.2% glucose) at 37° C.
2 μl of 1 mM of BCECF-AM per mL of the cell suspension was added. Incubated at 37° C. for 30 minutes, stirred up every 10 minutes during the incubation. After the incubation, the cells were washed with assay buffer at 37° C. The cells were suspended to a concentration of 6×10^6/mL.
The inhibitor was diluted to a final concentration of 2× in assay buffer, and 50 μL of the compound solution and […] of Jurkat cells were mixed at room temperature, and incubated at 37° C. for 30 minutes. 100 μL/well of cells and inhibitors were added to the plate and incubated for 1 hour at room temperature. The total fluorescence was measured by a fluorometer: ex: 485; em: 530; cutoff: 530 to measure the total fluorescence. The plate was washed once with the assay buffer and the fluorescence was measured with a fluorometer: ex: 485; em: 530; cutoff. The results are plotted as inhibition-concentration plots and EC50 is calculated using standard methods.

One may read the EC50 as the concentration at which the effect is half-maximal. For the molecule “2-(2,6-dichloro-4-(2-(methyl(3-hydroxyphenyl)phosphoryl)ethyl)benzylamino)-3-(3,5-(dimethylsulfonyl)phenyl)propionic Acid [Example 36]”, the EC50 was 30 nM. For `CS(=O)(=O)c1cccc(C[C@H](NC(=O)c2c(Cl)cc(CCP(=O)(O)c3ccccc3)cc2Cl)C(=O)O)c1` [Example 1, (2s)-2-(2,6-dichloro-4-(2-(hydroxy(phenyl)phosphoryl)ethyl)benzamido)-3-(3-(methylsulfonyl)phenyl)propionic Acid], the EC50 (Homo sapiens) amounted to 30 nM. Take `CS(=O)(=O)c1cccc(C[C@H](NC(=O)c2c(Cl)cc(C#CP(=O)(O)c3cccc(O)c3)cc2Cl)C(=O)O)c1` [Example 2]: the EC50 (Homo sapiens) was determined as 9.4 nM. The same measure, in the same setting: the result for `CS(=O)(=O)c1cccc(C[C@H](NC(=O)c2c(Cl)cc(CCP(=O)(O)c3cccc(O)c3)cc2Cl)C(=O)O)c1` [Example 3, (2s)-2-(2,6-dichloro-4-(2-(hydroxy(m-hydroxyphenyl)phosphoryl)ethyl)benzamido)-3-(3-(methylsulfonyl)phenyl)propionic Acid] reads 8.5 nM; that for `COP(=O)(C#Cc1cc(Cl)c(C(=O)N[C@@H](Cc2cccc(S(C)(=O)=O)c2)C(=O)O)c(Cl)c1)c1ccccc1` (stereo partly drawn) [Example 5], 22 nM. As to `CCOP(=O)(CCc1cc(Cl)c(C(=O)N[C@@H](Cc2cccc(S(C)(=O)=O)c2)C(=O)O)c(Cl)c1)c1cccc(O)c1` (stereo partly drawn) [Example 6, (2s)-2-(2,6-dichloro-4-(2-(ethoxy(m-hydroxyphenyl)phosphoryl)ethyl)benzamido)-3-(3-(methylsulfonyl)phenyl)propionic Acid], under “Homo sapiens”, the EC50 was 17 nM.

Take `COP(=O)(C#Cc1cc(Cl)c(C(=O)N[C@@H](Cc2cccc(S(C)(=O)=O)c2)C(=O)O)c(Cl)c1)c1cccc(O)c1` (stereo partly drawn) [Example 7]: the EC50 (Homo sapiens) came out at 7.2 nM.

With `COP(=O)(CCc1cc(Cl)c(C(=O)N[C@@H](Cc2cccc(S(C)(=O)=O)c2)C(=O)O)c(Cl)c1)c1cccc(O)c1` (stereo partly drawn) [Example 8, (2s)-2-(2,6-dichloro-4-(2-(methoxy(3-hydroxyphenyl)phosphoryl)ethyl)benzylamido)-3-(3-(methylsulfonyl)phenyl)propionic Acid], the EC50 (Homo sapiens) was determined as 6.2 nM. The same measure, in the same setting: the result for `CP(=O)(C#Cc1cc(Cl)c(C(=O)N[C@@H](Cc2cccc(S(C)(=O)=O)c2)C(=O)O)c(Cl)c1)c1ccccc1` (stereo partly drawn) [Example 9] reads 11.8 nM; that for `CP(=O)(CCc1cc(Cl)c(C(=O)N[C@@H](Cc2cccc(S(C)(=O)=O)c2)C(=O)O)c(Cl)c1)c1ccccc1` (stereo partly drawn) [Example 10, (2s)-2-(2,6-dichloro-4-(2-(methyl(phenyl)phosphoryl)ethyl)benzamide)-3-(3-(methylsulfonyl)phenyl)propionic Acid], 78 nM. On the same count and under the same terms, the result for `CP(=O)(C#Cc1cc(Cl)c(C(=O)N[C@@H](Cc2cccc(S(C)(=O)=O)c2)C(=O)O)c(Cl)c1)c1cccc(O)c1` (stereo partly drawn) [Example 11] reads 13.5 nM; that for `COc1cccc(P(=O)(C#Cc2cc(Cl)c(C(=O)N[C@@H](Cc3cccc(S(C)(=O)=O)c3)C(=O)O)c(Cl)c2)OC)c1` (stereo partly drawn) [Example 12], 29 nM. Turning to `COc1cccc(P(=O)(O)C#Cc2cc(Cl)c(C(=O)N[C@@H](Cc3cccc(S(C)(=O)=O)c3)C(=O)O)c(Cl)c2)c1` [Example 13], for the setting “Homo sapiens”, the EC50 worked out at 29 nM. Consider `CP(=O)(CCc1cc(Cl)c(C(=O)N[C@@H](Cc2cccc(S(C)(=O)=O)c2)C(=O)O)c(Cl)c1)c1cccc(O)c1` (stereo partly drawn) [Example 14], for which, under “Homo sapiens”, the EC50 was 8.5 nM.

As to `CP(=O)(C#Cc1cc(Cl)c(C(=O)N[C@@H](Cc2cccc(S(C)(=O)=O)c2)C(=O)O)c(Cl)c1)c1ccc(O)cc1` (stereo partly drawn) [Example 15], where the note is “Homo sapiens”, the EC50 was 1.8 nM. As to `CS(=O)(=O)c1cccc(C[C@H](NC(=O)c2c(Cl)cc(C#CP(=O)(O)c3ccccc3)cc2Cl)C(=O)O)c1` [Example 16], the EC50 (Homo sapiens) was determined as 7.2 nM. `CP(=O)(CCc1cc(Cl)c(C(=O)N[C@@H](CNC(=O)c2cccs2)C(=O)O)c(Cl)c1)c1cccc(O)c1` (stereo partly drawn) [Example 17, (2s)-2-(2,6-dichloro-4-(2-(methyl(3-hydroxyphenyl)phosphoryl)ethyl)benzamido)-3-(2-thenoylamide)propyl Acid]: the EC50 (Homo sapiens) turned out to be 15 nM. Take `CP(=O)(CCc1cc(Cl)c(C(=O)N[C@@H](CN/C(=N\C#N)N2CC[C@@H](O)C2)C(=O)O)c(Cl)c1)c1cccc(O)c1` (stereo partly drawn) [Example 19, (2s)-3-((R)—N′-cyano-3-hydroxytetrahydropyrrol-1-formamidino)-2-(2,6-dichloro-4-(2-(methyl(3-hydroxyphenyl)phosphoryl)ethyl)benzamido)propionic Acid]: the EC50 (Homo sapiens) amounted to 230 nM. For `CCP(=O)(CCc1cc(Cl)c(C(=O)N[C@@H](Cc2cccc(S(C)(=O)=O)c2)C(=O)O)c(Cl)c1)c1cccc(O)c1` (stereo partly drawn) [Example 21], under “Homo sapiens”, the EC50 is 7.3 nM. Still for that read-out and setting: the result for `CS(=O)(=O)c1cccc(C[C@H](NC(=O)c2c(Cl)cc(CCP(=O)(c3cccc(O)c3)C3CC3)cc2Cl)C(=O)O)c1` (stereo partly drawn) [Example 22] reads 22 nM; that for `CCCCP(=O)(CCc1cc(Cl)c(C(=O)N[C@@H](Cc2cccc(S(C)(=O)=O)c2)C(=O)O)c(Cl)c1)c1cccc(O)c1` (stereo partly drawn) [Example 23], 61 nM; that for `CP(=O)(CCc1cc(Cl)c(C(=O)N[C@@H](Cc2cccc(S(C)(=O)=O)c2)C(=O)O)c(Cl)c1)c1ccc2ccoc2c1` (stereo partly drawn) [Example 25], 63 nM. In the case of `CP(=O)(CCc1cc(Cl)c(C(=O)N[C@@H](Cc2cccc(S(C)(=O)=O)c2)C(=O)O)c(Cl)c1)c1cc2ccccc2o1` (stereo partly drawn) [Example 26], where the note is “Homo sapiens”, the concentration giving a half-maximal response (EC50) amounted to 23 nM. For the molecule `C[P@](=O)(CCc1cc(Cl)c(C(=O)N[C@@H](Cc2cccc(S(C)(=O)=O)c2)C(=O)O)c(Cl)c1)c1cccc(O)c1` [Example 30], the EC50 (Homo sapiens) came to 7.2 nM. The same measure, in the same setting: the result for `C[P@@](=O)(CCc1cc(Cl)c(C(=O)N[C@@H](Cc2cccc(S(C)(=O)=O)c2)C(=O)O)c(Cl)c1)c1cccc(O)c1` [Example 31] reads 7.1 nM. For the molecule `CCOP(=O)(/C=C/c1cc(Cl)c(C(=O)N[C@@H](Cc2cccc(S(C)(=O)=O)c2)C(=O)O)c(Cl)c1)c1cccc(O)c1` (stereo partly drawn) [Example 32, (S,E)-2-(4-(2-(3-hydroxyphenyl)phosphonovinyl)-2,6-dichlorobenzamide)-3-(3-(methylsulfonyl)phenyl)propionic Acid], the EC50 (Homo sapiens) worked out at 3.7 nM. As for `CP(=O)(CCc1cc(Cl)c(C(=O)N[C@@H](Cc2cccc(S(C)(=O)=O)c2)C(=O)O)c(Cl)c1)c1ccc(O)cc1` (stereo partly drawn) [Example 33], under “Homo sapiens”, the EC50 was 10.8 nM. On to `CP(=O)(CCc1cc(Cl)c(C(=O)N[C@@H](CNC(=O)c2cccc(O)c2)C(=O)O)c(Cl)c1)c1cccc(O)c1` (stereo partly drawn) [Example 34, (2s)-2-(2,6-dichloro-4-(2-(methyl(3-hydroxyphenyl)phosphoryl)ethyl)benzamido)-3-(3-hydroxybenzamido)propionic Acid], for which, for the setting “Homo sapiens”, the EC50 stood at 12.5 nM. The same measure, in the same setting: the result for `CP(=O)(CCc1cc(Cl)c(C(=O)N[C@@H](CNC(=O)c2cc(O)cc(O)c2)C(=O)O)c(Cl)c1)c1cccc(O)c1` (stereo partly drawn) [Example 35, (2s)-2-(2,6-dichloro-4-(2-(methyl(3-hydroxyphenyl)phosphoryl)ethyl)benzamido)-3-(3,5-dihydroxybenzamido)propionic Acid] reads 3.8 nM; that for `CP(=O)(CCc1cc(Cl)c(C(=O)N[C@@H](CCCCNS(C)(=O)=O)C(=O)O)c(Cl)c1)c1cccc(O)c1` (stereo partly drawn) [Example 37], more than 1000 nM; that for `CP(=O)(CCc1cc(Cl)c(C(=O)N[C@@H](Cc2cncc(S(C)(=O)=O)c2)C(=O)O)c(Cl)c1)c1cccc(O)c1` (stereo partly drawn) [Example 38], 24 nM. As for `CP(=O)(CCc1cc(Cl)c(C(=O)N[C@@H](CC2CCN(S(C)(=O)=O)C2)C(=O)O)c(Cl)c1)c1cccc(O)c1` (stereo partly drawn) [Example 42], under “Homo sapiens”, the EC50 was found to be 150 nM. `CP(=O)(CCc1cc(Cl)c(C(=O)N[C@@H](CN/C(=N\C#N)N2C[C@@H](O)[C@H](O)C2)C(=O)O)c(Cl)c1)c1cccc(O)c1` (stereo partly drawn) [Example 45, (2s)-3-((trans)-N′-cyano-3,4-dihydroxypyrrolidine-1-formamidino)-2-(2,6-dichloro-4-(2-(methyl(3-hydroxyphenyl)phosphoryl)ethyl)benzamido)propionic Acid]: where the note is “Homo sapiens”, the EC50 was more than 1000 nM. The same measure, in the same setting: the result for `CP(=O)(CCc1cc(Cl)c(C(=O)N[C@@H](CN/C(=N\C#N)N(CCO)CCO)C(=O)O)c(Cl)c1)c1cccc(O)c1` (stereo partly drawn) [Example 46, (2s)-3-(2-cyano-3,3-bis(2-hydroxyethyl)guanidino)-2-(2,6-dichloro-4-(2-(methyl(3-hydroxyphenyl)phosphoryl)ethyl)benzamido)propionic Acid] reads more than 1000 nM. Consider `COP(=O)(C#Cc1cc(Cl)c(C(=O)N[C@@H](Cc2cccc(S(C)(=O)=O)c2)C(=O)O)c(Cl)c1)c1ccccc1O` (stereo partly drawn) [Example 47], for which the EC50 (Homo sapiens) came to 340 nM. Consider `CP(=O)(C#Cc1cc(Cl)c(C(=O)N[C@@H](Cc2cccc(S(C)(=O)=O)c2)C(=O)O)c(Cl)c1)c1ccc(O)c(Cl)c1` (stereo partly drawn) [Example 48], for which, for the setting “Homo sapiens”, the concentration giving a half-maximal response (EC50) is 6.8 nM.

For the origin of these results see US11325929B2 (VivaVisionShanghaiLtd, priority 2017, dated 2022).
